Data published in patent US20260078135A1, “POLYCYCLIC QUINAZOLINES FOR INHIBITION OF ERBB2” (Enliven Inc., priority 2022, published 2026).

Assays:
[1] = target: T1, phosphorylated ERBB2 (pERBB2) (Homo sapiens, UniProt P04626); experiment: Detection of phosphorylated ERBB2 (pERBB2) by ELISA in BT-474 cells; assay type: cell-based; details: four hour incubation
T1 construct: endogenous in cells; host or cells: BT-474
Outline: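 BT-474 cells were treated with compounds (fourfold dilutions, 10 μM to 0.01 nM final) for 4 h at 37 °C, then lysed. pERBB2 in lysates was quantified by ELISA with an HRP anti-phosphotyrosine detection antibody and TMB read at 450 nm; % relative activity was normalized to no-cell and 0.1% DMSO controls.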

[2] = target: T2, phosphorylated EGFR (pEGFR) (Homo sapiens, UniProt P00533); experiment: Detection of phosphorylated EGFR (pEGFR) by AlphaLISA in EGF-stimulated A431 cells; assay type: cell-based; details: A431 cells (10% FBS), 4 hours incubation, EGF 30 ng/mL for 10 minutes
T2 construct: performed to measure phosphorylated EGFR levels using A431 cells (10% FBS); endogenous in cells; host or cells: A431
T2 sequence (P00533 25-1210): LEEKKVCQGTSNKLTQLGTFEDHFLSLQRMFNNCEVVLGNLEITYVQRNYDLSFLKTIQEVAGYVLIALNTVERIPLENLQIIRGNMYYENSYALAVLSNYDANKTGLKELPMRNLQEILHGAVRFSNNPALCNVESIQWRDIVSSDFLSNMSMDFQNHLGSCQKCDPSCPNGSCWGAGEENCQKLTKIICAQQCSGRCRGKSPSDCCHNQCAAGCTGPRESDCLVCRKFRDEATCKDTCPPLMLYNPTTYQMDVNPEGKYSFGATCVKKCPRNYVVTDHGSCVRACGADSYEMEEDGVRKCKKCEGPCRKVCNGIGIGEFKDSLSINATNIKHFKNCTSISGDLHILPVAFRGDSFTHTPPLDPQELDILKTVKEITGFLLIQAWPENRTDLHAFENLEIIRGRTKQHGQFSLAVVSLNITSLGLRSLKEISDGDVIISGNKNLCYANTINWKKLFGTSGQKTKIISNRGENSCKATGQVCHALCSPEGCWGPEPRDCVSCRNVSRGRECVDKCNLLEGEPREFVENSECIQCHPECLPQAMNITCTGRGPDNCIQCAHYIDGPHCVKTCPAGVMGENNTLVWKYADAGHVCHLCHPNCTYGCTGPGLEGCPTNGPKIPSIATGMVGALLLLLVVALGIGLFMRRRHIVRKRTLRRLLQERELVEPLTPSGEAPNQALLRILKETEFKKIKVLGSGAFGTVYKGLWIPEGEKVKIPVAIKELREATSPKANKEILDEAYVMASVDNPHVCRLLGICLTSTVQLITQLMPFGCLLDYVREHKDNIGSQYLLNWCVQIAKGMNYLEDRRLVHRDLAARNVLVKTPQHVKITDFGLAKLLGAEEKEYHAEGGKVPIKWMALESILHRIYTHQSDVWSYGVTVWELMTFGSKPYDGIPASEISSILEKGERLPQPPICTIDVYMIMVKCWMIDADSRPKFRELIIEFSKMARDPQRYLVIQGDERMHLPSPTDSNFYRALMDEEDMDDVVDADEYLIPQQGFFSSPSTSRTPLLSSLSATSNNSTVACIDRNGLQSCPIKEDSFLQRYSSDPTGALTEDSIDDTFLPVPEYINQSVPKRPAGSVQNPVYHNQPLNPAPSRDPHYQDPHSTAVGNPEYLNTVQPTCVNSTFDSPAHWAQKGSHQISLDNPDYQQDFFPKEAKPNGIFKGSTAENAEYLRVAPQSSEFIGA
Outline: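 pEGFR was quantified by AlphaLISA in lysates of A431 cells (10% FBS) given a 10 min pulse of EGF at 30 ng/mL after 4 h compound exposure at 37 °C. IC50 came from a four-parameter fit of % inhibition between DMSO and staurosporine controls.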

Ba/F3 ERBB2 YVMA = Ba/F3 ERBB2 YVMA (Homo sapiens, UniProt P04626, DUP772-775, cells depend on it); experiment: Cell viability assay (CellTiter Glo), Ba/F3 cells engineered to express ERBB2 YVMA; assay type: cell-based, mouse; details: Ba/F3 cells expressing human ERBB2 YVMA mutant, 72 hours, read-out: Ba/F3 ERBB2 YVMA, IC50
Ba/F3 ERBB2 YVMA, sequence (P04626 with tags, fused parts or gaps DUP772-775): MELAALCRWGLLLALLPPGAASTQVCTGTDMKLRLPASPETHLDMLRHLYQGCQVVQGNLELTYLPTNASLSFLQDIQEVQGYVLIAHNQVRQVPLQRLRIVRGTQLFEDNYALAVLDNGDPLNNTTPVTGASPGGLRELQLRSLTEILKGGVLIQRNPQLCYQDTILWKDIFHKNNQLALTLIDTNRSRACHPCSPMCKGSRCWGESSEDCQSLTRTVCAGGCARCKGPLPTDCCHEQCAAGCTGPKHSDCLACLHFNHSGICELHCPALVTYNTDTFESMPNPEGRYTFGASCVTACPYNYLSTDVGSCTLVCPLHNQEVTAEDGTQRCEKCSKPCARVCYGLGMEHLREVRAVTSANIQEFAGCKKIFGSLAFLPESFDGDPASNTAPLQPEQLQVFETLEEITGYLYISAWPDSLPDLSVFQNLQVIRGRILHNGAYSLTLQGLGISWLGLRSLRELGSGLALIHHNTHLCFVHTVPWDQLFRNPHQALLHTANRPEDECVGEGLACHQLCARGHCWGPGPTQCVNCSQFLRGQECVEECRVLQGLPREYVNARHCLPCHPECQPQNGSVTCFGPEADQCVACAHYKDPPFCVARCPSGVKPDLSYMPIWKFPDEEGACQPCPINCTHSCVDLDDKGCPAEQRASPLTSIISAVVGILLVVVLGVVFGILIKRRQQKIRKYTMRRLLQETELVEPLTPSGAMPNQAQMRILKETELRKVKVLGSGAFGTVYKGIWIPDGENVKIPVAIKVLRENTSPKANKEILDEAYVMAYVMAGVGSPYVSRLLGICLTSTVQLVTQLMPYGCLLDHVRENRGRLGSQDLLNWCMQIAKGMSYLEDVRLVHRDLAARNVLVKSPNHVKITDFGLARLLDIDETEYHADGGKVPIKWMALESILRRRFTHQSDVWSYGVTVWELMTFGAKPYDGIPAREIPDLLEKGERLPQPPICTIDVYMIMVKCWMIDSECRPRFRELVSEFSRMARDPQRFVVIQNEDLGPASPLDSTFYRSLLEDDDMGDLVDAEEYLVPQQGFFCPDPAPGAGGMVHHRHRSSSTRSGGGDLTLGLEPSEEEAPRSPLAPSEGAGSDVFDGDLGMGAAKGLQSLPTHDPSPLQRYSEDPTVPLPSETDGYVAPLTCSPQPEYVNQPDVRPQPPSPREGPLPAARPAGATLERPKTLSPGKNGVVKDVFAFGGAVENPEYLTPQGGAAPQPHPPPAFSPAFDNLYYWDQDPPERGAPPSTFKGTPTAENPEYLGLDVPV
Method: Cells were treated with compounds, and cell viability was measured as a metric of kinase inhibition.
BT-474, A431, MDA-MB-175VII, NCI-H1781, MCF7, and Ba/F3 cell lines were tested. The Ba/F3 cell line is IL-3-dependent mouse cell line derived from the C3H mouse strain. Ba/F3 cell lines were engineered to express human ERBB2 or EGFR kinases, rendering the cells IL-3 independent. The lines were generated via retroviral transduction utilizing a Moloney murine leukemia virus (MMLV) promoter, and constructs are stably integrated into the cell genome. The sequences of the ERBB2 and EGFR genes used were NCBI Reference Sequences NM_004448.3 and NM_005228.3, respectively.
BT-474, A431, MDA-MB-175VII, NCI-H1781 and MCF7 cells were grown in the appropriate growth medium as described in Table B2 below, and harvested at 50-80% confluence. BT-474, A431, MDA-MB-175VII, NCI-H1781 and MCF7 cells were counted and seeded at 2,000 or 1,500 cells per well in 384-well tissue culture plates (see Table B2). Similarly, Ba/F3 cell lines engineered to express EGFR, ERBB2, or ERBB2 mutants were grown, harvested, counted and seeded at 3000 cells per well in 96-well plates. A subset of wells contained media only (low control, “LC”).
Table B1 provides the growth media and number of cells seeded per well for the each cell line.
Compounds were dissolved in DMSO and serially diluted. Serially-diluted compound or a DMSO only control (high control, “HC”) was added to the plated cells in each well. Compounds were tested at concentrations of about 10 μM to 0.51 nM, using three-fold dilutions. The final proportion of DMSO never exceeded 0.1%.
Plates were placed in a 37° C., 5% CO2 incubator for 72 hours. Plates were then removed from the incubator and equilibrated for 15 minutes at room temperature. 40 μl of CellTiter Glo reagent (Promega) was added to measure the relative level of metabolically active cells by quantifying intracellular ATP concentrations. Plates were incubated for 30 minutes at room temperature, and luminescence was measured. Percent viability was normalized to a vehicle control only using the following formula: % viability=100×(Lumsample−LumLC)/(LumHC−LumLC). Graphical curves were fitted using a nonlinear regression model with a sigmoidal dose response.

T1 sequence (P04626 23-1255): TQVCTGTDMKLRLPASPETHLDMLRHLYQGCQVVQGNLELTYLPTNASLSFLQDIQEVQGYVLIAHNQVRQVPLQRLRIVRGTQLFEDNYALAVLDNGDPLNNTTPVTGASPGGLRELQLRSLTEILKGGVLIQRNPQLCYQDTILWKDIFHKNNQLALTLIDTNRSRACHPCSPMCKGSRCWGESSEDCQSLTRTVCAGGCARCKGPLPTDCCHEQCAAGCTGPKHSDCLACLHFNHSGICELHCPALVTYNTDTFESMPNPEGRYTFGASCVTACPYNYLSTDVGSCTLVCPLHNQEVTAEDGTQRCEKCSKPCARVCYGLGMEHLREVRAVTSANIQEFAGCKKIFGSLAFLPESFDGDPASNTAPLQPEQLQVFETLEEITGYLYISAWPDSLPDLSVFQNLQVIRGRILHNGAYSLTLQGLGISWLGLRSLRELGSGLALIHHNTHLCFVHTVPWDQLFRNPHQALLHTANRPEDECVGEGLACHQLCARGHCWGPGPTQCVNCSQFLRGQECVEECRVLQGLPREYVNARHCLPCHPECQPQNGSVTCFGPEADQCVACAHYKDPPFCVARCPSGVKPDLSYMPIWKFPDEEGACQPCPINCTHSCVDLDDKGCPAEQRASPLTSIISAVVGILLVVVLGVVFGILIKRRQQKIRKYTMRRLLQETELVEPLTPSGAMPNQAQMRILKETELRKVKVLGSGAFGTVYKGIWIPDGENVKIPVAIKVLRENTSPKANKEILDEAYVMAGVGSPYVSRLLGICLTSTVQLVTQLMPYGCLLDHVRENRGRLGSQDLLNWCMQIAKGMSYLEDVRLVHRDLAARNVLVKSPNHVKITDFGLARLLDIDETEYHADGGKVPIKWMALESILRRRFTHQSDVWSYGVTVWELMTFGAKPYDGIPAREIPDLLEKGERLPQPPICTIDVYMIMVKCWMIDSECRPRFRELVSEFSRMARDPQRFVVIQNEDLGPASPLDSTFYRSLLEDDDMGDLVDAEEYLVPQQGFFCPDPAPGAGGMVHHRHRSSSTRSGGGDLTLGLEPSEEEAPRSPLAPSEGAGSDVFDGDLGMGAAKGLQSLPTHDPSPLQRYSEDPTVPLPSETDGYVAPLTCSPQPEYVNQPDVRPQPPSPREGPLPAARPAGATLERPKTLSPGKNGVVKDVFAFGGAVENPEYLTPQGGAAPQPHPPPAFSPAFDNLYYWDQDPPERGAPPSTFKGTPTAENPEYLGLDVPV

Row | SMILES | IC50 [1] [µM] | IC50 [2] [µM] | GI50 (Ba/F3 ERBB2 YVMA) [µM]
1 | Cc1cc(Nc2ncnc3cnc4c(c23)OC[C@@H]2CN(C(=O)/C=C/CN(C)C)CCN42)ccc1Oc1ccn2ncnc2c1 [Compound 112, (S,E)-1-(4-((4-([1,2,4]triazolo[1,5-a]pyridin-7-yloxy)-3-methylphenyl)amino)-6a,7,9,10-tetrahydropyrazino[1,2-d]pyrimido[5′,4′:4,5]pyrido[3,2-b][1,4]oxazin-8(6H)-yl)-4-(dimethylamino)but-2-en-1-one] | 0.0218 | 1.17 | 0.0133
2 | Cc1cc(Nc2ncnc3ccc4c(c23)OC[C@@H]2CN(C(=O)/C=C/C3CN(C)C3)CCN42)ccc1Oc1ccn2ncnc2c1 [Compound 114, (S,E)-1-(4-((4-([1,2,4]triazolo[1,5-a]pyridin-7-yloxy)-3-methylphenyl)amino)-6a,7,9,10-tetrahydropyrazino[1′,2′:4,5][1,4]oxazino[2,3-f]quinazolin-8(6H)-yl)-3-(1-methylazetidin-3-yl)prop-2-en-1-one formic acid] | 0.0431 | > 10 | 0.172
3 | Cc1cc(Nc2ncnc3ccc4c(c23)O[C@@H]2CCN(C)C[C@H]2N4C)ccc1Oc1ccc2c(c1)ncn2C (relative stereo) [Compound 124, trans-7,9-dimethyl-N-(3-methyl-4-((1-methyl-1H-benzo[d]imidazol-5-yl)oxy)phenyl)-7a,8,9,10,11,11a-hexahydro-7H-pyrido[3′,4′:5,6][1,4]oxazino[2,3-f]quinazolin-1-amine] | 0.063 | > 10 | 0.0937
4 | C=CC(=O)N1CCN2C[C@H]1COc1c2ccc2ncnc(Nc3ccc(Oc4ccc5c(c4)ncn5C)c(C)c3)c12 [Compound 28, 1-((3S)-13-((3-methyl-4-((1-methyl-1H-benzo[d]imidazol-5-yl)oxy)phenyl)amino)-2,3,5,6-tetrahydro-4H-3,7-methano[1,4,7]oxadiazonino[2,3-f]quinazolin-4-yl)prop-2-en-1-one] | 0.417 | > 10 | > 0.5
5 | CN(C)C/C=C/C(=O)N1CCN2c3ncc4ncnc(Nc5cc(F)c(Oc6ccn7ncnc7c6)cc5F)c4c3OC[C@H]2C1 [Compound 115, (R,E)-1-(4-((4-([1,2,4]triazolo[1,5-a]pyridin-7-yloxy)-2,5-difluorophenyl)amino)-6a,7,9,10-tetrahydropyrazino[1,2-d]pyrimido[5′,4′:4,5]pyrido[3,2-b][1,4]oxazin-8(6H)-yl)-4-(dimethylamino)but-2-en-1-one] | 0.0302 | 4.77 | 0.00722
6 | Cc1cc(Nc2ncnc3cnc4c(c23)O[C@@H]2CCNC[C@H]2N4C)ccc1Oc1ccc2c(c1)ncn2C [Compound 135, (7aR,11aR)-7-methyl-N-(3-methyl-4-((1-methyl-1H-benzo[d]imidazol-5-yl)oxy)phenyl)-7a,8,9,10,11,11a-hexahydro-7H-pyrido[4,3-b]pyrimido[5′,4′:4,5]pyrido[2,3-e][1,4]oxazin-1-amine] | 0.0561 | > 10 | 0.0889
7 | Cc1cc(Nc2ncnc3cnc4c(c23)OC[C@H]2CN4CCN2C(=O)/C=C/CN(C)C)c(F)cc1Oc1ccn2ncnc2c1 [Compound 83, (E)-1-((3R)-13-((4-([1,2,4]triazolo[1,5-a]pyridin-7-yloxy)-2-fluoro-5-methylphenyl)amino)-2,3,5,6-tetrahydro-4H-3,7-methanopyrimido[5′,4′:4,5]pyrido[3,2-b][1,4,7]oxadiazonin-4-yl)-4-(dimethylamino)but-2-en-1-one] | 0.0173 | 0.344 | 0.014
8 | Cc1cc(Nc2ncnc3cc4c(cc23)N2CCN(C(=O)/C=C/CN(C)C)C[C@@H]2CO4)ccc1Oc1ccn2ncnc2c1 [Compound 10, (R,E)-1-(11-((4-([1,2,4]triazolo[1,5-a]pyridin-7-yloxy)-3-methylphenyl)amino)-1,2,4a,5-tetrahydropyrazino[1′,2′:4,5][1,4]oxazino[3,2-g]quinazolin-3(4H)-yl)-4-(dimethylamino)but-2-en-1-one] | 0.0327 | 3.28 | 0.0849
9 | Cc1cc(Nc2ncnc3ccc4c(c23)OC[C@H]2CN4CCN2C(=O)/C=C/C2(F)CN(C)C2)ccc1Oc1ccn2ncnc2c1 [Compound 81, (E)-1-((3R)-13-((4-([1,2,4]triazolo[1,5-a]pyridin-7-yloxy)-3-methylphenyl)amino)-2,3,5,6-tetrahydro-4H-3,7-methano[1,4,7]oxadiazonino[2,3-f]quinazolin-4-yl)-3-(3-fluoro-1-methylazetidin-3-yl)prop-2-en-1-one] | 0.0172 | 0.785 | 0.00851
10 | Cc1cc(Nc2ncnc3ccc4c(c23)O[C@@H]2CCN(C)C[C@@H]2N4C)ccc1Oc1ccc2c(c1)ncn2C [Compound 123, (7aS,11aR)-7,9-dimethyl-N-(3-methyl-4-((1-methyl-1H-benzo[d]imidazol-5-yl)oxy)phenyl)-7a,8,9,10,11,11a-hexahydro-7H-pyrido[3′,4′:5,6][1,4]oxazino[2,3-f]quinazolin-1-amine] | – | > 10 | 0.0464
11 | Cc1cc(Nc2ncnc3ccc4c(c23)O[C@@H]2CCN(C)C[C@@H]2N4C)ccc1Oc1ccc2c(c1)ncn2C [Compound 129, (7aS,11aR)-7,9-dimethyl-N-(3-methyl-4-((1-methyl-1H-benzo[d]imidazol-5-yl)oxy)phenyl)-7a,8,9,10,11,11a-hexahydro-7H-pyrido[3′,4′:5,6][1,4]oxazino[2,3-f]quinazolin-1-amine] | – | > 10 | 0.111
12 | Cc1cc(Nc2ncnc3ccc4c(c23)OC[C@H]2COCCN42)ccc1Oc1ccc2c(c1)ncn2C [Compound 108, (R)—N-(3-methyl-4-((1-methyl-1H-benzo[d]imidazol-5-yl)oxy)phenyl)-6a,7,9,10-tetrahydro-6H-[1,4]oxazino[4′,3′:4,5][1,4]oxazino[2,3-f]quinazolin-4-amine] | 0.0572 | 9.52 | –
13 | Cc1cc(Nc2ncnc3cc4c(nc23)N2CCOC[C@H]2CO4)ccc1Oc1ccc2c(c1)ncn2C [Compound 107, (S)—N-(3-methyl-4-((1-methyl-1H-benzo[d]imidazol-5-yl)oxy)phenyl)-1,2,4a,5-tetrahydro-4H-[1,4]oxazino[4,3-d]pyrimido[4′,5′:5,6]pyrido[3,2-b][1,4]oxazin-11-amine] | 0.0782 | > 10 | –
14 | Cc1cc(Nc2ncnc3cc4c(cc23)N2CCN(C)C[C@@H]2CO4)ccc1Oc1ccn2ncnc2c1 [Compound 60, (R)—N-(4-([1,2,4]triazolo[1,5-a]pyridin-7-yloxy)-3-methylphenyl)-3-methyl-1,2,3,4,4a,5-hexahydropyrazino[1′,2′:4,5][1,4]oxazino[3,2-g]quinazolin-11-amine] | 0.0972 | > 10 | –
15 | Cc1cc(Nc2ncnc3cc4c(nc23)N2CCN(C)C[C@H]2CO4)ccc1Oc1ccc2c(c1)ncn2C [Compound 38, (S)-3-methyl-N-(3-methyl-4-((1-methyl-1H-benzo[d]imidazol-5-yl)oxy)phenyl)-1,2,3,4,4a,5-hexahydropyrazino[1,2-d]pyrimido[4′,5′:5,6]pyrido[3,2-b][1,4]oxazin-11-amine] | 0.0606 | > 10 | –
16 | Cc1cc(Nc2ncnc3cc4c(cc23)N2CCNC[C@@H]2CO4)ccc1Oc1ccc2c(c1)ncn2C [Compound 63, (R)—N-(3-methyl-4-((1-methyl-1H-benzo[d]imidazol-5-yl)oxy)phenyl)-1,2,3,4,4a,5-hexahydropyrazino[1′,2′:4,5][1,4]oxazino[3,2-g]quinazolin-11-amine] | 0.153 | > 10 | –
